Read-outs that look alike come from different tables or passages of the source.
Experiments:
[1] = system: H460 cell line; test: In vitro cell proliferation inhibition with the drug combination (CTG method); format: cell-based, human; conditions: for IC50: Homo sapiens
Protocol: • a) H460 cells (human non-small lung cancer cells, AKR1C3 enzyme highly expressed) were cultured in RPMI-1640 medium, added with 10% FBS and 1% double antibody, and placed at 37° C. and 5% CO2 for culturing.
• a) The cells were routinely cultured until the cell saturation was 80%-90%, and when the required quantity was reached, the cells were collected. • b) The cells were resuspended with the corresponding medium and cell counts were performed to prepare a cell suspension with appropriate density. • c) The cell suspension was added to a 96-well plate with 100 μL per well, and the cell density was 2,000 cells per well. • d) The cells were incubated overnight in an incubator at 37° C. with 5% CO2. 1.1.3 Treating Cells with Compound (72 Hours)
AST-3424 alone: after 24 hours of cell seeding, AST-3424 was administered alone. Specifically, each well was supplemented with 99 μL of growth medium, and then added with 1 μL of the prepared AST-3424 solution to form different concentrations of AST-3424. The plate was shaken gently to ensure uniform mixing, and placed in an incubator at 37° C. with 5% CO2.
The cell plates were placed in the incubator for 72 hours.
1.1.4 Treating Cells with Compound (2 Hours) • a) Administrating single drug: after 24 hours of cell seeding, AST-3424 was administered alone. Specifically, each well was supplemented with 99 μL of growth medium, and then added with 1 μL of the prepared AST-3424 solution to form different concentrations of AST-3424. The plate was shaken gently to ensure uniform mixing, and placed in the incubator for 2 hours. […] The plate was shaken gently to ensure uniform mixing. After the plate was placed in the incubator for 2 hours, 1 μL of the prepared AST-3424 solution was added to form different concentrations of AST-3424. The plate was shaken gently to ensure uniform mixing, and placed in the incubator at 37° C. with 5% CO2 for another 2 hours. Then, the supernatant was discarded, and the remainder was washed twice with growth medium and added with 200 μL of fresh medium.
1.1.6 Detecting with CTG Method • a) The cell plate to be tested was placed at room temperature to equilibrium for 30 minutes, and 100 μL of culture medium was discarded from each well. • b) 25 μL CTG reagent (CelltiterGlo kit) was added to each well. The plate was placed on a fast shaker to shake for 2 minutes, and then placed at room temperature away from light for 30 minutes. • c) The chemiluminescent signal value was read with multifunctional microplate reader at reading time of 1000 ms.
IC50 was calculated with GraphPad Prism 5 software, and the IC50 (half maximal inhibitory concentration) of the compound was obtained using the following nonlinear fitting formula: […]

[2] = system: H460 cell line; test: Cell proliferation inhibition by combining Naproxen or TH-3021 and AST-3424 in different sequence of administration (CTG); format: cell-based, human; conditions: Homo sapiens, AST-3424 alone 2 h as reference, H460
Protocol: The following are the different treatment methods. […] The plate was shaken gently to ensure uniform mixing, and placed in the incubator for 2 hours. […] The plate was shaken gently to ensure uniform mixing, and placed in the incubator for 2 hours. Subsequently, the plate was washed to remove the compound, and placed in the incubator at 37° C. with 5% CO2 for further 72 hours. […] The plate was shaken gently to ensure uniform mixing, and placed in the incubator for 2 hours. Subsequently, the plate was washed to remove the compounds, and placed in the incubator at 37° C. with 5% CO2 for 72 hours. […] The plate was shaken gently to ensure uniform mixing, and placed in the incubator for 2 hours. […] The plate was shaken gently to ensure uniform mixing, and placed in the incubator for 2 hours. Subsequently, the plate was washed to remove the compounds, and placed in the incubator at 37° C. with 5% CO2 for further 72 hours. […] The plate was shaken gently to ensure uniform mixing, and placed in the incubator for 2 hours. […] The plate was shaken gently to ensure uniform mixing, and placed in the incubator for 2 hours. Subsequently, the plate was washed to remove the compounds, and placed in the incubator at 37° C. with 5% CO2 for further 72 hours. b) Administrating single drug: after 24 hours of cell seeding, the compound was administered alone. […] The plate was shaken gently to ensure uniform mixing, and placed in the incubator at 37° C. with 5% CO2 for 2 hours. Subsequently, the compound was washed off, and each well was added with fresh medium. The plate was placed in the incubator at 37° C. with 5% CO2 for further 72 hours.

[3] = cited from earlier work; for AUC0-t / CL (L/h/m^2) / Cmax / T1/2 / Tmax / Vdss (L/m^2): patients, mean
[4] = Body weight / tolerance of mice in the human lung cancer NCI-H460 model
Protocol: BALB/c nude mice were subcutaneously inoculated with human lung cancer NCI-H460 cells to establish the subcutaneous transplant tumor model of human lung cancer. The experiment was assigned to seven groups, with 5 mice in each group: the test drug Celecoxib 50 mg/kg and 100 mg/kg groups, the AST-3424 2.5 mg/kg group, and different combination therapy groups of Celecoxib 50 mg/kg or 100 mg/kg and AST-3424 2.5 mg/kg, and the 0.5% sodium carboxymethylcellulose vehicle control group. […] The AST-3424 2.5 mg/kg group was administered by tail vein injection once a week for a total of three weeks, and observed for 7 days. In the combination therapy groups of Celecoxib 50 mg/kg or 100 mg/kg and AST-3424 2.5 mg/kg, Celecoxib was administered by gavage once a day for a total of 15 days, and AST-3424 was administered by tail vein injection once a week for a total of three weeks, and observed for 7 days.

[5] = OBI-3424 dose level 1 mg/m^2, infusion
[6] = OBI-3424 dose level 2 mg/m^2, infusion
[7] = OBI-3424 dose level 4 mg/m^2, infusion
[8] = OBI-3424 dose level 6 mg/m^2, infusion
[9] = OBI-3424 dose level 8 mg/m^2, infusion
[10] = OBI-3424 dose level 10 mg/m^2, infusion
[11] = OBI-3424 dose level 12 mg/m^2, infusion
[12] = OBI-3424 dose level 14 mg/m^2, infusion
[13] = Group 7: AST-3424 2.5 mg/kg QW×3 i.v., Day 37 after the inoculation of tumor cell

In the case of `C[C@H](OP(=O)(N1CC1)N1CC1)c1ccc([N+](=O)[O-])c(Oc2cccc(C(=O)N(C)C)c2)c1` [AST-3424], the IC50 ([1]; NCI-H460, AST-3424 alone, read-out: IC50(nM) -TH-3021) is reported as 0.97 nM, the IC50 ([1]; NCI-H460, read-out: IC50(nM) +3 μM TH-3021, +3 μM TH-3021 (2 h pre-incubation, then 2 h with AST-3424)) is reported as 360 nM and the Inhibition factor ([1]; IC50 +3 μM TH-3021 vs AST-3424 alone) is reported as 371.65. It also gave an IC50 ([2]; NCI-H460, 2 h, Group 2: TH-3021 3 μM or Naproxen 400 μM + AST-3424 2 h simultaneously) of 1.08 nM, an IC50 ([2]; NCI-H460, Group 1: TH-3021 3 μM or Naproxen 400 μM 2 h pretreatment, washed off, then AST-3424 2 h) of 0.88 nM and an IC50 ([2]; NCI-H460, Group 3: AST-3424 2 h pretreatment, washed off, then TH-3021 3 μM or Naproxen 400 μM 2 h) of 1 nM. For the same compound, the IC50 ([2]; NCI-H460, Group 4: TH-3021 3 μM or Naproxen 400 μM 2 h pretreatment, not washed off, AST-3424 2 h cotreatment) was 1.14 nM, the “AUC0-t” value [3, 5] was 217.10 ng·h/mL and the “CL (L/h/m^2)” value [3, 5] was 4.74 L/h/m^2. For the same compound, the “Cmax” value [3, 5] was 289.30 ng/mL, the “T1/2” value [3, 5] was 17.4 min and the “Tmax” value [3, 5] was 27.6 min. The “Vdss (L/m^2)” value [3, 5] was 2.45 L/m^2, the “AUC0-t” value [3, 6] was 298.00 ng·h/mL and the “CL (L/h/m^2)” value [3, 6] was 8.85 L/h/m^2. For the same compound, the “Cmax” value [3, 6] was 375.80 ng/mL, the “T1/2” value [3, 6] was 18.6 min and the “Tmax” value [3, 6] was 30 min. For the same compound, the “Vdss (L/m^2)” value [3, 6] was 4.13 L/m^2, the “AUC0-t” value [3, 7] was 650.90 ng·h/mL and the “CL (L/h/m^2)” value [3, 7] was 7.74 L/h/m^2. The “Cmax” value [3, 7] was 803.50 ng/mL, the “T1/2” value [3, 7] was 12.6 min and the “Tmax” value [3, 7] was 19.8 min. The “Vdss (L/m^2)” value [3, 7] was 2.68 L/m^2, the “AUC0-t” value [3, 8] was 1278.10 ng·h/mL and the “CL (L/h/m^2)” value [3, 8] was 4.84 L/h/m^2. For the same compound, the “Cmax” value [3, 8] was 1360.30 ng/mL, the “T1/2” value [3, 8] was 44.4 min and the “Tmax” value [3, 8] was 30 min. The “Vdss (L/m^2)” value [3, 8] was 3.72 L/m^2, the “AUC0-t” value [3, 9] was 1678.40 ng·h/mL and the “CL (L/h/m^2)” value [3, 9] was 6.53 L/h/m^2. For the same compound, the “Cmax” value [3, 9] was 1613.10 ng/mL, the “T1/2” value [3, 9] was 40.2 min and the “Tmax” value [3, 9] was 25.2 min. For the same compound, the “Vdss (L/m^2)” value [3, 9] was 3.97 L/m^2, the “AUC0-t” value [3, 10] was 2037.00 ng·h/mL and the “CL (L/h/m^2)” value [3, 10] was 4.92 L/h/m^2. For the same compound, the “Cmax” value [3, 10] was 2654.70 ng/mL, the “T1/2” value [3, 10] was 34.2 min and the “Tmax” value [3, 10] was 30 min. The “Vdss (L/m^2)” value [3, 10] was 3.06 L/m^2, the “AUC0-t” value [3, 11] was 2159.40 ng·h/mL and the “CL (L/h/m^2)” value [3, 11] was 8.20 L/h/m^2. For the same compound, the “Cmax” value [3, 11] was 2481.90 ng/mL, the “T1/2” value [3, 11] was 33 min and the “Tmax” value [3, 11] was 26.4 min. The “Vdss (L/m^2)” value [3, 11] was 4.33 L/m^2, the “AUC0-t” value [3, 12] was 2131.80 ng·h/mL and the “CL (L/h/m^2)” value [3, 12] was 8.49 L/h/m^2. The “Cmax” value [3, 12] was 2619.20 ng/mL, the “T1/2” value [3, 12] was 33 min and the “Tmax” value [3, 12] was 25.2 min. The “Vdss (L/m^2)” value [3, 12] was 4.31 L/m^2, the “accumulation of exposure (Cmax and AUC)” value ([3]; between the two doses (Cycle 1 Day1 and Cycle 1 Day8)) was “no accumulation of exposure” and the “Mean body weight g (x ± S)” value ([4]; Group 7: AST-3424 2.5 mg/kg QW×3 i.v., Day 9 after the inoculation of tumor cell) was 25.6 ± 0.7 g. For the same compound, the “Change of body weight (%)” value [4, 13] was −11.74%, the “Mean body weight g (x ± S)” value [4, 13] was 22.5 ± 0.5 g and the tolerance of mice ([4]; NCI-H460 model) was “good tolerance”.

Reference: US20260130928A1, “COMBINATION OF AKR1C3 ACTIVATED ANTICANCER PRODRUG COMPOUND AND ANALGESIC DRUG FOR TREATING CANCER PATIENTS ACCOMPANIED BY PAIN” (ASCENTAWITS PHARMACEUTICALS, LTD., priority 2022, published 2026)
